Results: article PMC12209990, “Effect of Cytochrome P450 3A Inhibition and Induction by Itraconazole and Rifampin on Tazemetostat Pharmacokinetics in Patients With Advanced Malignancies” (Clinical Pharmacology in Drug Development, 2025)
Read-outs that look alike come from different tables or passages of the source. Marks after values point to notes of the source that are not given here.

How the values were obtained:
[1] = Phase I DDI study Part 2: tazemetostat plasma PK alone and with rifampin (noncompartmental analysis); format: in vivo, human; conditions: for AUC0‐12h ratio, geoLSM (90% CI) / Cmax ratio, geoLSM (90% CI): steady state with rifampin vs alone, Day 24 versus Day 15; for RacAUC (AUC0‐12h accumulation ratio), geoLSM (90% CI) / RacCmax (Cmax accumulation ratio), geoLSM (90% CI): tazemetostat 800 mg alone, Day 15 versus Day 1; for Tmax / AUC / AUC(0-t) / Cmax / half-life: human; for Tmax: read-out: tmax, median (range)
Description: This was a Phase I, multicenter, open‐label, 2‐part study encompassing a fixed‐sequence design that aimed to characterize the PK of tazemetostat when administered as single and twice‐daily oral doses alone or in combination with either itraconazole (Part 1) or rifampin (Part 2). Secondary objectives were to evaluate the safety profile of tazemetostat when coadministered with either itraconazole (Part 1) or rifampin (Part 2).
(§1) Part 2 of the study evaluated the DDI between tazemetostat and rifampin. On the mornings of Days 1 and 15, patients received a single dose of tazemetostat 800 mg orally. On Days 3‐14, patients received tazemetostat 800 mg twice daily. On Days 17‐23, patients received tazemetostat 800 mg twice daily, coadministered in the morning with a single dose of rifampin 600 mg orally. On the morning of Day 24, patients received a single dose of tazemetostat 800 mg coadministered with rifampin 600 mg. On the morning of Day 25, patients received rifampin 600 mg (Figure 1B). Throughout Part 2, administration of rifampin occurred 1 hour before a meal.
In Part 2, plasma concentrations of tazemetostat following tazemetostat dosing on Days 1, 15, and 24 were quantified for PK analyses before dosing (0 hour) and at 0.5, 1, 1.5, 2, 4, 6, 8, 12, 24, 36, and 48 hours.
Plasma concentrations of tazemetostat, over the ranges of 1.00‐2000 ng/mL, were quantified by a fully validated liquid chromatography with tandem mass spectrometric detection analytical method. Samples that had no detectable peak or had the calculated concentration <1.00 ng/mL were reported as below the lower limit of quantification. Tazemetostat analysis consisted of protein precipitation extraction and separation using mobile phases of 100 mM ammonium formate/water (1:9 v/v) (mobile phase A) and 100 mM ammonium formate/acetonitrile (1:9 v/v) (mobile phase B). Detection was achieved using an API‐5500 mass spectrometer (AB Sciex) using electrospray ionization (positive‐ion mode) in the multiple reaction monitoring mode. The multiple reaction monitoring mode m/z transitions monitored were […] for tazemetostat and the dwell time was set at 300 milliseconds.
Plasma concentration‐time data for tazemetostat were analyzed by noncompartmental analysis using the validated software program Phoenix WinNonlin Professional Version 8.3 (Certara Inc., Mountain View, CA).

[2] = Safety (TEAEs) Part 2: tazemetostat coadministered with rifampin
Protocol: as §1
Safety was assessed by monitoring treatment‐emergent adverse events (TEAEs) and vital signs, electrocardiography, and clinical laboratory tests. TEAEs were defined as adverse events that started or worsened in severity on or after the date of the first dose of the study drug through 30 days after the last dose. Treatment‐related TEAEs were summarized by each study drug for both study parts. Adverse events were coded using the Medical Dictionary for Regulatory Activities Version 23.1 and graded per Common Terminology Criteria for Adverse Events Version 5.0.

[3] = Part 2, tazemetostat 800 mg twice daily alone, multiple dosing, Day 15, plasma

## CCN(c1cc(-c2ccc(CN3CCOCC3)cc2)cc(C(=O)NCc2c(C)cc(C)[nH]c2=O)c1C)C1CCOCC1 [Tazemetostat]
[1]; Part 2
  AUC0‐12h ratio, geoLSM (90% CI): 0.163 (0.128‐0.208) ^d
  Cmax ratio, geoLSM (90% CI): 0.164 (0.122‐0.219) ^d
  RacAUC (AUC0‐12h accumulation ratio), geoLSM (90% CI): 0.816 (0.638‐1.04) ^e
  RacCmax (Cmax accumulation ratio), geoLSM (90% CI): 0.828 (0.635‐1.08) ^e
[1]; Part 2, listed as tazemetostat
  AUC0‐12h ratio, geoLSM (90% CI): 0.163
  Cmax ratio, geoLSM (90% CI): 0.164
  RacAUC (AUC0‐12h accumulation ratio), geoLSM (90% CI): 0.816
  RacCmax (Cmax accumulation ratio), geoLSM (90% CI): 0.828
[1]; [3]
  t1/2, GeoMean (CV%): 7.55 (20.3) hour
  tmax, median (range): 1.00 (0.63‐4.00) hour
[1]; oral, Part 2, tazemetostat 800 mg multiple dosing with rifampin 600 mg once daily, Day 24, plasma
  Tmax: 1.01 h
[1]; plasma, oral, 800 mg, Part 2, tazemetostat 800 mg twice daily alone, multiple dosing, Day 15, plasma, read-out: AUC0‐12 h, GeoMean (CV%)
  AUC: 3610 ng·h/mL
[1]; plasma, oral, 800 mg, Part 2, tazemetostat 800 mg twice daily alone, multiple dosing, Day 15, plasma, read-out: AUC0‐12 h, mean (SD)
  AUC: 4330 ng·h/mL
[1]; plasma, oral, 800 mg, Part 2, tazemetostat 800 mg twice daily alone, multiple dosing, Day 15, plasma, read-out: AUClast, GeoMean (CV%)
  AUC(0-t): 4270 ng·h/mL
[1]; plasma, oral, 800 mg, Part 2, tazemetostat 800 mg twice daily alone, multiple dosing, Day 15, plasma, read-out: AUClast, mean (SD)
  AUC(0-t): 5220 ng·h/mL
[1]; plasma, oral, 800 mg, Part 2, tazemetostat 800 mg twice daily alone, multiple dosing, Day 15, plasma, read-out: Cmax, GeoMean (CV%)
  Cmax: 1100 ng/mL
[1]; plasma, oral, 800 mg, Part 2, tazemetostat 800 mg twice daily alone, multiple dosing, Day 15, plasma, read-out: Cmax, mean (SD)
  Cmax: 1380 ng/mL
[1]; plasma, oral, 800 mg, Part 2, tazemetostat 800 mg twice daily alone, multiple dosing, Day 15, plasma, read-out: t1/2, mean (SD) (converted)
  half-life: 7.7 h
[1]; plasma, oral, Part 2, tazemetostat 800 mg multiple dosing with rifampin 600 mg once daily, Day 24, plasma, read-out: AUC0‐12 h, GeoMean (CV%)
  AUC: 588 ng·h/mL
[1]; plasma, oral, Part 2, tazemetostat 800 mg multiple dosing with rifampin 600 mg once daily, Day 24, plasma, read-out: AUC0‐12 h, mean (SD)
  AUC: 770 ng·h/mL
[1]; plasma, oral, Part 2, tazemetostat 800 mg multiple dosing with rifampin 600 mg once daily, Day 24, plasma, read-out: AUClast, GeoMean (CV%)
  AUC(0-t): 676 ng·h/mL
[1]; plasma, oral, Part 2, tazemetostat 800 mg multiple dosing with rifampin 600 mg once daily, Day 24, plasma, read-out: AUClast, mean (SD)
  AUC(0-t): 934 ng·h/mL
[1]; plasma, oral, Part 2, tazemetostat 800 mg multiple dosing with rifampin 600 mg once daily, Day 24, plasma, read-out: Cmax, GeoMean (CV%)
  Cmax: 181 ng/mL
[1]; plasma, oral, Part 2, tazemetostat 800 mg multiple dosing with rifampin 600 mg once daily, Day 24, plasma, read-out: Cmax, mean (SD)
  Cmax: 233 ng/mL
[1]; plasma, oral, Part 2, tazemetostat 800 mg multiple dosing with rifampin 600 mg once daily, Day 24, plasma, read-out: t1/2, GeoMean (CV%) (converted)
  half-life: 4.86 h
[1]; plasma, oral, Part 2, tazemetostat 800 mg multiple dosing with rifampin 600 mg once daily, Day 24, plasma, read-out: t1/2, mean (SD) (converted)
  half-life: 5.06 h
[1]; plasma, po, 800 mg, Part 2, tazemetostat 800 mg oral single dose alone, Day 1, plasma, read-out: AUC0‐12 h, GeoMean (CV%)
  AUC: 4420 ng·h/mL
[1]; plasma, po, 800 mg, Part 2, tazemetostat 800 mg oral single dose alone, Day 1, plasma, read-out: AUC0‐12 h, mean (SD)
  AUC: 5310 ng·h/mL
[1]; plasma, po, 800 mg, Part 2, tazemetostat 800 mg oral single dose alone, Day 1, plasma, read-out: AUClast, GeoMean (CV%)
  AUC(0-t): 5200 ng·h/mL
[1]; plasma, po, 800 mg, Part 2, tazemetostat 800 mg oral single dose alone, Day 1, plasma, read-out: AUClast, mean (SD)
  AUC(0-t): 6370 ng·h/mL
[1]; plasma, po, 800 mg, Part 2, tazemetostat 800 mg oral single dose alone, Day 1, plasma, read-out: Cmax, GeoMean (CV%)
  Cmax: 1330 ng/mL
[1]; plasma, po, 800 mg, Part 2, tazemetostat 800 mg oral single dose alone, Day 1, plasma, read-out: Cmax, mean (SD)
  Cmax: 1550 ng/mL
[1]; plasma, po, 800 mg, Part 2, tazemetostat 800 mg oral single dose alone, Day 1, plasma, read-out: t1/2, GeoMean (CV%) (converted)
  half-life: 6.22 h
[1]; plasma, po, 800 mg, Part 2, tazemetostat 800 mg oral single dose alone, Day 1, plasma, read-out: t1/2, mean (SD) (converted)
  half-life: 6.49 h
[1]; Part 2, tazemetostat 800 mg oral single dose alone, Day 1, plasma
  Tmax: 1.04 h
[1]; steady state, Day 24/Day 15
  decrease of tazemetostat steady‐state exposure (Cmax and AUC0‐12h) by rifampin: approximately 84%
[2]; Part 2
  Deaths resulting from TEAEs: no deaths
[2]; human, in vivo
  Any TEAE Grade 3 or 4, patients: 13 (61.9) n (%)
  Any TEAE leading to dose reduction, patients: 2 (9.5) n (%)
  Any TEAE leading to study drug discontinuation, patients: 0 n (%)
  Any TEAE leading to study drug interruption, patients: 7 (33.3) n (%)
  Any TEAE, patients: 21 (100.0) n (%)
  Any TESAE, patients: 9 (42.9) n (%)
  Any treatment-related TEAE Grade 3 or 4, patients: 7 (33.3) n (%)
  Any treatment-related TESAE, patients: 1 (4.8) n (%)
  Grade 3/4 TEAE decreased lymphocyte count: 9.5%
  TEAE anemia, frequency: 23.8%
  TEAE constipation, frequency: 23.8%
  TEAE cough, frequency: 28.6%
  TEAE diarrhea, frequency: 33.3%
  TEAE fatigue, frequency: 42.9%
  TEAE nausea, frequency: 23.8%
  Tazemetostat‐related Grade 3/4 TEAE acute kidney injury: 4.8%
  Tazemetostat‐related Grade 3/4 TEAE alanine aminotransferase increased: 4.8%
  Tazemetostat‐related Grade 3/4 TEAE anemia: 9.5%
  Tazemetostat‐related Grade 3/4 TEAE aspartate aminotransferase: 4.8%
  Tazemetostat‐related Grade 3/4 TEAE diarrhea: 4.8%
  Tazemetostat‐related Grade 3/4 TEAE syncope: 4.8%
  Treatment-related TEAE Grade 3 or 4, related to the named study drug, patients: 7 (33.3) n (%)
  Treatment-related TEAEs, related to the named study drug, patients: 16 (76.2) n (%)
  Treatment-related TESAE, related to the named study drug, patients: 1 (4.8) n (%)
[2]; in vivo
  Any TEAE, patients: all patients
